Measurements: patent US8153609B2 (priority 2004, dated 2012)
Values joined by “and” are separate entries in the source; they are usually repeats but may differ in a detail not shown here. Identical values can stand only once. Counter-ions that a name gives are not always drawn. Like-named read-outs stand apart in the source and are kept apart here.

What was measured:
[1] = molecular target: T1, PKA type Iα (RIα/Cα) holoenzyme (Homo sapiens, UniProt P10644); experiment: Cook coupled spectrophotometric kinase assay, suppression (antagonist) assay, PKA type Iα; assay type: biochemical; settings: for Antagonist / EC50: Table 1 (Example 83), PKA type Iα; for EC50: unit inferred, read-out: EC50 inhibition; for relative potency*: antagonists relative to Rp-8Br-cAMPS; for Potency: PKA type Iα enzymatic activity, relative to the known Rp-8-Br-cAMPS
[2] = molecular target: T1, PKA type Iα (RIα/Cα) holoenzyme; experiment: Cook assay, activation (agonist) assay, RIα holoenzyme; assay type: biochemical; settings: Table 1 (Example 83), activation screen 10 μM analog
[3] = test system: Human peripheral T lymphocytes; experiment: T lymphocyte proliferation assay (anti-CD3 activated, [3H]thymidine); settings: Ex vivo testing in T lymphocytes; for Antagonist properties: in presence of agonist Sp-8-Br-cAMPS; for relative potency*: reference compounds = 1.00
[4] = molecular target: T2, PKA type IIα (RIIα holoenzyme) (Homo sapiens, UniProt P13861); experiment: Cook kinase assay, suppression assay, PKA type IIα; assay type: biochemical; settings: for relative inhibition*: % antagonist effect with 1 μM Sp-8Br-cAMPS at 250 μM of Rp-cAMPS analog; for EC50RII/EC50RI***: Selectivity for PKA type I (EC50 PKA type II/EC50 PKA type I); for Antagonist / EC50: Table 2, Holo RIIa; for EC50: unit inferred, read-out: EC50 inhibition; for relative potency**: antagonists relative to Rp-8-Br-cAMPS, Holo RIIa; for IC50: reversal of Sp-8-Br-cAMP-mediated PKA type II activation, 1 μM Sp-8-Br cAMPS, 10 nM RIIα holoenzyme, read-out: half-maximal antagonistic effect (IC50 or EC50)
PKA type Iα (holo RIα) = PKA type Iα (holo RIα) (Homo sapiens, UniProt P10644); experiment: Biacore surface competition ligand binding assay, holo RIα; settings: 10 nM holo RIα; for EC50: Rp-8-AHA cAMPS surface
[5] = test system: CD4+ T cells of MAIDS-infected C57BL6 mice; settings: mouse, in vivo
[6] = molecular target: T2, PKA type IIα (RIIα holoenzyme); experiment: Cook assay, activation of Holo RIIα; settings: for Agonist: Table 2, Holo RIIa
[7] = reversal of Sp-8-Br-cAMP-mediated PKA activation, 1 μM Sp-8-Br-cAMPS, 10 nM RIα holoenzyme, read-out: half-maximal antagonistic effect (IC50 or EC50)

Row | Compound | Antagonist [1] | relative potency* [1] | IC50 [1, 7] | Agonist [2] | Agonist properties [3] | Antagonist properties [3] | Potency [1] | further results
1 | Nc1ncnc2c1nc(-c1ccc(Br)o1)n2C1OC2COP(O)(=S)OC2C1O (stereo not shown) [Rp-8-(2-Br-5-furyl)-cAMPS] | yes* | 0.45 | 2900 nM | no | No | Yes | – | EC50 [1]: 3000 nM
2 | Nc1ncnc2c1nc(-c1ccco1)n2C1OC2COP(O)(=S)OC2C1O (stereo not shown) [Rp-8-(2-furyl)-cAMPS, (Rp)-8-(2-Furyl)adenosine-3′,5′-cyclic phosphorothioic acid ammonium salt] | yes | 4.24 | 238 nM and 337 nM and 360 nM | no | No | Yes | 4.24 | EC50 [1]: 319 nM; IC50 ([1]; Table 3, read-out: holo RIa Cook): 349 nM; relative inhibition* [4]: 59%; EC50RII/EC50RI*** [4]: 32; Antagonist [4]: yes; EC50 [4]: 11600 nM; relative potency** [4]: 1.28; IC50 [4]: 11600 nM and 16700 nM; EC50 (PKA type Iα (holo RIα)): 377 nM; binding to 8-AHA cAMP surface (PKA type Iα (holo RIα); any concentration of antagonist): not affected; binding of holo complex at the Rp-8-AHA cAMPS surface (PKA type Iα (holo RIα); excess of antagonist 10 μM): completely blocked; effect in binding to the 8-AHA cAMP surface (PKA type Iα (holo RIα); excess of antagonist 10 μM): no effect; IFN-γ secretion of CD4+ T cells from the infected mice [5]: slightly increasing; TNF-α secretion by CD4 T cells of infected mice [5]: inhibited; TNF-α secretion of CD4+ T cells from the infected mice after stimulation with SEB [5]: reducing; significance (p) of effect on SEB stimulated TNF-α secretion by CD4 T cells [5]: 0.0041; Agonist [6]: no
3 | Nc1ncnc2c1nc(-c1cccs1)n2C1OC2COP(O)(=S)OC2C1O (stereo not shown) [Rp-8-(2-thienyl)-cAMPS, (Rp)-8-(2-Thienyl)adenosine-3′,5′-cyclic phosphorothioic acid ammonium salt] | yes | 3.01 | 449 nM | no | No | Yes | 3.01 | –
4 | Nc1ncnc2c1nc(-c1ccoc1)n2C1OC2COP(O)(=S)OC2C1O (stereo not shown) [Rp-8-(3-furyl)-cAMPS, (Rp)-8-(3-Furyl)adenosine-3′,5′-cyclic phosphorothioic acid ammonium salt] | yes | 2.23 | 607 nM | no | – | Yes | 2.23 | EC50 (PKA type Iα (holo RIα)): 743 nM
5 | Nc1ncnc2c1nc(-c1ccsc1)n2C1OC2COP(O)(=S)OC2C1O (stereo not shown) [Rp-8-(3-thienyl)-cAMPS] | yes | 1.83 | 739 nM | no | – | Yes | 1.83 | –
6 | Cc1ccc(-c2nc3c(N)ncnc3n2C2OC3COP(O)(=S)OC3C2O)o1 (stereo not shown) [Rp-8-(5-Me-2-furyl)-cAMPS, (Rp)-8-(5-Methyl-2-furyl)adenosine-3′,5′-cyclic phosphorothioic acid tributylammonium salt] | yes | 1.17 | 1160 nM | no | No | Yes | – | –
7 | Nc1ncnc2c1nc(-c1ccc(CO)o1)n2C1OC2COP(O)(=S)OC2C1O (stereo not shown) [Rp-8-(5-MeOH-2-furyl)-cAMPS, (Rp)-8-(2-Hydroxymethyl-5-furyl)adenosine-3′,5′-cyclic phosphorothioic acid tributylammonium salt] | yes | 0.68 | 1980 nM | no | No | Yes | – | –
8 | CC(=O)c1nc2c(N)ncnc2n1C1OC2COP(O)(=S)OC2C1O (stereo not shown) [Rp-8-acetyl-cAMPS] | yes | 0.86 | 1580 nM | no | No | Yes | – | –
9 | Nc1ncnc2c1nc(-c1cc3ccccc3o1)n2C1OC2COP(O)(=S)OC2C1O (stereo not shown) [Rp-8-benzofuryl-cAMPS, (Rp)-8-(2-Benzofuryl)adenosine-3′,5′-cyclic phosphorothioic acid tributylammonium salt] | yes | 0.49 | – | no | No | Yes | – | EC50 [1]: 2780 nM
10 | CCc1nc2c(N)ncnc2n1C1OC2COP(O)(=S)OC2C1O (stereo not shown) [Rp-8-ethyl-cAMPS] | yes | 0.22 | 6130 nM | no | No | Yes | – | –
11 | Nc1ncnc2c1nc(-c1ccccc1)n2C1OC2COP(O)(=S)OC2C1O (stereo not shown) [Rp-8-phenyl-cAMPS, (Rp)-8-Phenyladenosine-3′,5′-cyclic phosphorothioic acid] | yes | 1.28 | – | no | No | Yes | 1.28 | EC50 [1]: 1060 nM; relative inhibition* [4]: 61%; EC50RII/EC50RI*** [4]: 46; Antagonist [4]: yes; EC50 [4]: 48600 nM; relative potency** [4]: 0.31; IC50 [4]: 48600 nM; Agonist [6]: no
12 | Nc1ncnc2c1nc(Br)n2[C@@H]1O[C@@H]2COP(O)(=S)O[C@@H]2C1O (stereo partly shown) [Sp-8-Br-cAMPS, reference compound] | – | – | – | – | Yes | No | – | Antagonist [4]: no; Agonist [6]: yes; EC50 ([6]; read-out: EC50 (activation constant of Holo RIIα with agonist), 10 nM Holo RIIα, 3 minute preincubation): 294 nM; relative potency* [3]: 1.00
13 | (Rp)-8-(2-Thiazolyl)adenosine-3′,5′-cyclic phosphorothioic acid ammonium salt [Rp-8-(2-thiazole)-cAMPS] | – | – | – | – | No | Weak | – | –
14 | (Rp)-8-(5-Methoxy-2-furyl)adenosine-3′,5′-cyclic phosphorothioic acid tributylammonium salt [Rp-8-(5-MeO-2-FU)-cAMPS] | – | – | – | – | No | Yes | – | relative potency* [3]: 0.25
